From patent US10981862B2, “Physiological cooling compounds” (Symrise, Inc., priority 2015, dated 2021)

Experiments:
[1] = Cooling strength and longevity in alcohol-free mouthwash; type: in vivo; conditions: compared with WS-5
Protocol: Select physiological coolants according to various embodiments were tested in an alcohol-free mouthwash and their impact was evaluated against the control (a known coolant WS-5).

sensory panel = assay: Sensory panel evaluation of cooling ability, 20 ppm aqueous solutions; type: in vivo; conditions: for Longevity of cooling sensation / Time to reach peak cooling / Time period at peak cooling / Peak cooling strength / Peak Strength: 20 ppm aqueous solution; for Time period at peak cooling: cooling plateau; for Peak cooling strength: maximum cooling strength rated on a 1-10 scale; for Peak Strength: Table 4, repeats Table 2, 1-10 scale; for Cooling properties, in words: sensory panel results
Protocol: The new carboxamides A1-A15 and B1-B15 were evaluated for their cooling ability by a sensory panel. The evaluation included tasting the 20 ppm aqueous solutions of new carboxamides and rating their maximum cooling strength on a 1-10 scale. In addition, the time at which maximum cooling strength was reached, how long the maximum strength was observed (so called cooling plateau), and the longevity of cooling sensation were recorded. The FIGURE represents a typical cooling profile, using compound A1 as an example. The obtained results (table 2), were compared with two most commonly used commercial cooling compounds WS-3 and WS-23 which belong to the same class of N-alkyl carboxamides. While various methods exist for evaluation of cooling compounds, we have chosen the parameters that allow to assess the practical aspects of new compounds that reflect their potential value as commercial sensory ingredients.

[2] = Cooling strength and longevity in toothpaste; type: in vivo; conditions: compared with controls
Protocol: New cooling compound according to compound A2 was tested in toothpaste and its impact was evaluated against two controls (no coolant and a known coolant WS-5) and in combination with WS-5.

[3] = Cooling evaluation in hard boiled candy; type: in vivo; conditions: compared with both control samples
Protocol: Compound A2 was tested in hard boiled candy and evaluated against controls.

[4] = amount of compound needed to produce a cooling sensation; cited from earlier work

For `CCC(C)(C)NC(=O)C1CC(C)CCC1C(C)C` (stereo not shown) [Compound A1], the “Cooling effect in mouthwash, in words” value [1] was “superior long-lasting cooling effect”, the “Longevity of cooling sensation” value (sensory panel) was 25 min and the “Time to reach peak cooling” value (sensory panel) was 6 min. For the same compound, the “Time period at peak cooling” value (sensory panel) was 2 min, the Peak cooling strength (sensory panel) was 8 and the “Peak Strength” value (sensory panel) was 8. For the same compound, the “Cooling properties, in words” value (sensory panel) was “one of the most potent coolants found among the N-alkyl p-menthane carboxamides” and the melting point was 133.1 °C.
For `CC(C)CCNC(=O)C1CC(C)CCC1C(C)C` (stereo not shown) [Compound A2], the “Cooling effect in mouthwash, in words” value [1] was “superior long-lasting cooling effect”, the “Cooling effect in toothpaste, in words” value [2] was “superior and longer lasting effect” and the “Longevity of cooling sensation” value (sensory panel) was 23 min. For the same compound, the “Time to reach peak cooling” value (sensory panel) was 5 min, the “Time period at peak cooling” value (sensory panel) was 2 min and the Peak cooling strength (sensory panel) was 7. The “Peak Strength” value (sensory panel) was 7, the “Cooling impact in hard candy, in words” value [3] was “long-lasting cooling impact” and the melting point was 69.6 °C.
In the case of `CCCCCCNC(=O)C1CC(C)CCC1C(C)C` (stereo not shown) [Compound A8], the “Cooling effect in mouthwash, in words” value [1] was “superior long-lasting cooling effect”, the “Longevity of cooling sensation” value (sensory panel) was 29 min and the “Time to reach peak cooling” value (sensory panel) was 5 min. For the same compound, the “Time period at peak cooling” value (sensory panel) was 2 min, the Peak cooling strength (sensory panel) was 6 and the “Peak Strength” value (sensory panel) was 6. For the same compound, the “Cooling properties, in words” value (sensory panel) was “peak cooling strength exceeds both WS-3 and A4” and the melting point was 58.8 °C.
In the case of `CNC(=O)C1CC(C)CCC1C(C)C` (stereo not shown) [Methyl], the “Threshold” value [4] is given as 1.1 µg.
In the case of `CCNC(=O)C1CC(C)CCC1C(C)C` (stereo not shown) [WS-3, reference compound], the “Threshold” value [4] is given as 0.3 µg, the “Longevity of cooling sensation” value (sensory panel) is given as 11 min and the “Time to reach peak cooling” value (sensory panel) is given as 2 min. For the same compound, the “Time period at peak cooling” value (sensory panel) was 2 min and the Peak cooling strength (sensory panel) was 5.
